Laboratory results taken from patent US20060034819A1, “Proteins and methods useful for assessing risk of cardiovascular disease” (UNITHER PHARMA, INC., priority 2002, published 2006).

Legend:
NOS = details: LNMMA compared with ADMA; cited from earlier work
mutant DDAH = assay: fluorescence polarization immunoassay (FPIA) with ADMA-OG; assay type: binding, Human
Source text: Fluorescence Polarization Immunassay (FPIA) is another homogeneous solution phase immunoassay for small molecule analytes, which has the unique advantage that a positive signal is generated by competition. FPIA detects the difference between mutant DDAH-bound and free fluorescently-labelled ligand as the polarization of emitted light when excited by plane-polarized light. Small molecule ligands tumble so fast during the excited state that emitted light is nearly isotropic, whereas, the larger mutant DDAH-bound ligand hardly rotates at all during the excited state and therefore emits highly polarized or anisotropic light. Analyte is measured by its ability to compete with label for binding to mutant DDAH, and thereby lower the polarization of emitted light, and increase its intensity at certain angles relative to the incident light. […] Free ADMA is measured as a function of its concentration-dependent ability to compete with fluorescein-ADMA for binding to mutant DDAH thereby reducing polarized emission.
ADMA is conjugated through its alpha-amino group to Oregon Green (OG) and purified by reversed phase HPLC. […] At 10^−10 M ADMA-OG, polarization is determined after equilibration with various concentrations of mutant DDAH ranging from 10^−10 M to 10^−6 M. The minimum value should be equivalent to that of the free conjugate. […]

DDAH = DDAH as an ADMA sensor; binding affinity low; cited from earlier work

**Q.** For `CN(C)C(=N)NCCCC(N)C(=O)O` (centres unmarked) [ADMA, asymmetric N,N-dimethyl arginine], which “potency as inhibitors of NOS” value (NOS) is on record?
**A.** The value was “equipotent”.

**Q.** With `CNC(=N)NCCC[C@H](N)C(=O)O` [LNMMA, L,N-monomethylarginine] as the compound, how does the “potency as inhibitors of NOS” value (NOS) read?
**A.** The value was “equipotent”.

**Q.** Which results are given for `CN=C(NC)NCCC[C@H](N)C(=O)O` [SDMA, symmetric dimethylarginine]?
**A.** inhibition of polarization (mutant DDAH; concentration equivalent to 10^−7 M free ADMA): no detectable inhibition; Km (DDAH): > 100 µM

**Q.** With `N=C(N)NCCC[C@H](N)C(=O)O` [arginine] as the compound, how does the inhibition of polarization (mutant DDAH; 100-fold higher concentration than 10^−7 M free ADMA) read?
**A.** Its inhibition of polarization is “no detectable inhibition”.
